“Also recorded” adds a separate entry of the source.
Experiments:
[1] = Stability of SkQ1 in solutions containing benzalkonium chloride (storage 24 hours at room temperature, HPLC-MS/MS); assay type: physicochemical; details: for Determined concentration of SkQ1 in 24 hours: 10 mM sodium phosphate pH 6.5, 0.9% NaCl
Experimental: (§1) Materials and Method for Quantitative Detection of SkQ1
(§2) Analysis is carried out by high-performance liquid chromatography with MS/MS detection.
(§3) 100 μL of the internal standard solution is placed into a 10 ml flask, 5 ml of the water-ethanol solution is added and stirred for 11 min. 500 μL of sample solution is added to 0.1 ml of a 0.5 M solution of 3-chloroperbenzoic acid in ethanol, and the volume is adjusted to the mark with ethanol-water solution and stirred for 30 min. 1 ml of the resulting solution is transferred into a chromatographic vial.
(§4) The chromatographic conditions are as follows: The device used is a Waters ACQUITY UPLC®. The column used is steel, 2.1×50 mm, filled with sorbent Acquity BEH C18, 1.7 μm (Waters, P/N 186002350) or equivalent. The column temperature is 35° C. The mobile phase is eluent A: 20 mM solution of formic acid in 5% aqueous acetonitrile and eluent B: 20 mM solution of formic acid in aqueous acetonitrile. The flow rate is 0.5 ml/min. The volume of injection is the total loop (about 11 μL). The elution mode is a gradient of eluents A and B according to Table 4.
(§5) The time of the analysis is about 5 min. The detector is a Waters TQD (tri-quadrupole) for MS/MS.
(§6) The conditions of detection is as follows: The electrospraying mode is positive (ES+). The working mode is monitoring of reactions of settled ions (MRM). The temperature of the ion source is 120° C. The vaporization temperature is 450° C. The cone voltage is 55 V. The capillary voltage is 3.0 kV. The collision gas (CID) is argon. The collision gas flow rate is 0.18 ml/min. The collision gas pressure (CID) is 4.5×10^−3 mbar. The transitions of scans and collision energy are according to Table 5.
(§7) The SkQ1 content in the product (μg/ml) was calculated using the equation:
(§8) [formula] • “S/Ssmpl” is the ratio of peak areas and SkQ1 and SkQ1-d15 in chromatograms of the sample solution; • “S/Sstd” is the ratio of SkQ1 and SkQ1-d15 peak areas in chromatograms of the SS solution; • “a” is the amount of SkQ1 taken to prepare the original standard solution, in mgs; • “W” is the water content and organic solvents in SkQ1 substance taken to prepare the original standard solution, in percent; and • “P” is the SkQ1 content in SkQ1 substance taken to prepare the original standard solution, in percent.

[2] = Stability of SkQ1 in solutions with different prolongators (storage 50 days at room temperature, HPLC-MS/MS); assay type: physicochemical; details: for Relative content of SkQ1 after incubation for 50 days: 10 mM sodium phosphate pH 6.5, 0.9% NaCl, 0.01% benzalkonium chloride, room temperature
Experimental: as §1, §2, §3, §4, §5, §6, §7, §8

Decrease of the concentration of SkQ1 ([1]; absence of benzalkonium chloride, 24 hours): 58% | Determined concentration of SkQ1 in 24 hours ([1]; benzalkonium chloride 0 (control) %, added SkQ1 250 nM): 104 nM | Relative content of SkQ1 ([1]; benzalkonium chloride 0 (control) %, added SkQ1 250 nM, 24 hours): 42% | Determined concentration of SkQ1 in 24 hours ([1]; benzalkonium chloride 0.01%, added SkQ1 50 nM): 56 nM | Relative content of SkQ1 ([1]; benzalkonium chloride 0.01%, added SkQ1 50 nM, 24 hours): 112% | Determined concentration of SkQ1 in 24 hours ([1]; benzalkonium chloride 0.01%, added SkQ1 100 nM): 97 nM | Relative content of SkQ1 ([1]; benzalkonium chloride 0.01%, added SkQ1 100 nM, 24 hours): 97% | Determined concentration of SkQ1 in 24 hours ([1]; benzalkonium chloride 0.01%, added SkQ1 180 nM): 180 nM | Relative content of SkQ1 ([1]; benzalkonium chloride 0.01%, added SkQ1 180 nM, 24 hours): 100% | Determined concentration of SkQ1 in 24 hours ([1]; benzalkonium chloride 0.01%, added SkQ1 250 nM): 254 nM | Relative content of SkQ1 ([1]; benzalkonium chloride 0.01%, added SkQ1 250 nM, 24 hours): 102% | Relative content of SkQ1 after incubation for 50 days ([2]; 0.2% HPMC): 93% | Effect of prolongator on SkQ1 concentration during storage (in words) ([2]; 0.2% HPMC, 50 days at room temperature): stabilizes the concentration | Relative content of SkQ1 after incubation for 50 days ([2]; 0.2% MC): 79% | Relative content of SkQ1 after incubation for 50 days ([2]; control (no prolongator)): 83%
SMILES: Br.CC1=C(C)C(=O)C(CCCCCCCCCC[P+](c2ccccc2)(c2ccccc2)c2ccccc2)=CC1=O [SkQ1]
Decrease of SkQ1 concentration during storage (in words) ([1]; addition of 0.01% benzalkonium chloride, SkQ1 up to 250 nM, 24 hours): completely prevented; also recorded: prevents a decrease in the concentration
